What was measured:
[1] = molecular target: T1, PTPN2 (Homo sapiens, UniProt P17706); experiment: Phosphatase activity assay (Bio-Biochem-DiFMUP), PTPN2; assay type: biochemical; settings: DiFMUP substrate, room temperature
T1 sequence (P17706 1-415): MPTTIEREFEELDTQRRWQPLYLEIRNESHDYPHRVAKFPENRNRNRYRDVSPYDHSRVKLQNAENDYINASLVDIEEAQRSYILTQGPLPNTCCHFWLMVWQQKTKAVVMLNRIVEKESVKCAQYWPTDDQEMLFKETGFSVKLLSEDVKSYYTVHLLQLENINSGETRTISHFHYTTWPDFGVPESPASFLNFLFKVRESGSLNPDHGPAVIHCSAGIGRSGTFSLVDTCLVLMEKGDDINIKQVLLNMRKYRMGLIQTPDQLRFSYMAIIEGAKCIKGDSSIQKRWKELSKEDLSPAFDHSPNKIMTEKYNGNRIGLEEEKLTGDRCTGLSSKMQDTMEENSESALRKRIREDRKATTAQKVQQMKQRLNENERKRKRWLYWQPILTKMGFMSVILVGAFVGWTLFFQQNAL
Excerpt: (§1) The selectivity and potency of a small molecule PTPN2 inhibitor as provided herein (e.g., a derivative of Formula I, II, III, IV; or sub-formulae thereof) against one or more protein tyrosine phosphatase (PTP) enzymes, and specifically against PTPN2, can be assessed in various ways. The one or more PTP enzymes comprise Mycobacterium protein tyrosine phosphatase A (mPTPA), Mycobacterium protein tyrosine phosphatase B (mPTPB), PTPN1 (i.e., PTP1B), PTPN2 (i.e., TC-PTP), SHP-1, SHP-2, FAP-1, Meg2, HePTP, Laforin, VHX, VHR, LMWPTP, Cdcl4A, LAR, CD45, PTPRG, a fragment thereof, a variant thereof, and a combination thereof. Selectivity and potency of a small molecule PTPN2 inhibitor is evaluated using a PTP activity inhibition assay. The assay is performed using a buffer comprising 50 millimolar (mM) Bis-Tris (pH=6.3), 2 mM EDTA, and 5 mM N,N′-dimethyl-N,N′-bis(mercaptoacetyl)hydrazine (DMH). The assay is performed using a phosphated substrate, e.g., 10 mM fluorescein diphosphate (FDP) that is stored at −20° C. Alternatively or in addition to, the assay is performed using 10 mM DiFMUP as a phosphated substrate. Each PTP enzyme is diluted in an enzyme dilution buffer comprising 50 mM Bis-Tris (pH=6.3), 2 mM EDTA, 5 mM DMH, 20% (vol./vol.) glycerol, and 0.01% (vol./vol.) Triton X-100.
(§2) The assay is carried out at room temperature in 96 well plates. A reaction mixture of 170 microliter (μL) of the assay buffer comprising 10 μM FDP or DiFMIUP is added to each well. A 10 μL volume of (i) a compound disclosed herein (e.g., PTPN2 inhibitor) dissolved in DMSO at one of 10 concentrations from a serial dilution or (ii) DMSO alone for control is added to each well. The reaction is initiated by adding 20 μL of a PTP enzyme (e.g., PTPN2) that is diluted in the enzyme dilution buffer. The phosphatase activity of the PTP enzyme is assessed by monitoring appearance of a fluorescent product (e.g., fluorescein monophosphate (FMP) from FDP, or 6,8-difluoro-7-hydroxyl-4-coumarin (DiFMU) from DiFMUP) continuously for about 15 to 30 minutes, using the SpectraMax® Gemini™ XPS Microplate Spectrofluorometer (Molecular Devices®) with excitation of 440 nm and emission at 530 nm (cutoff filter at 525 nm) for FMP and excitation at 360 nm and emission at 450 nm (cutoff filter at 435 nm) for DiFMU. The rate (e.g., the initial rate) of FMP or DiFMU formation is plotted against the concentration of the small molecule PTPN2 inhibitor, and the data is fitted (e.g., using a 4-parameter equation) to determine the inflection point of the fit as the IC50 of the small molecule PTPN2 inhibitor for a specific enzyme. Table 6 summarizes the IC50 values of compounds disclosed herein against PTPN2 and PTPN1.

[2] = molecular target: T2, PTP1B (Homo sapiens, UniProt P18031); experiment: Phosphatase activity assay (Bio-Biochem-DiFMUP), PTP1B; assay type: biochemical; settings: DiFMUP substrate, room temperature
T2 sequence (P18031 1-435): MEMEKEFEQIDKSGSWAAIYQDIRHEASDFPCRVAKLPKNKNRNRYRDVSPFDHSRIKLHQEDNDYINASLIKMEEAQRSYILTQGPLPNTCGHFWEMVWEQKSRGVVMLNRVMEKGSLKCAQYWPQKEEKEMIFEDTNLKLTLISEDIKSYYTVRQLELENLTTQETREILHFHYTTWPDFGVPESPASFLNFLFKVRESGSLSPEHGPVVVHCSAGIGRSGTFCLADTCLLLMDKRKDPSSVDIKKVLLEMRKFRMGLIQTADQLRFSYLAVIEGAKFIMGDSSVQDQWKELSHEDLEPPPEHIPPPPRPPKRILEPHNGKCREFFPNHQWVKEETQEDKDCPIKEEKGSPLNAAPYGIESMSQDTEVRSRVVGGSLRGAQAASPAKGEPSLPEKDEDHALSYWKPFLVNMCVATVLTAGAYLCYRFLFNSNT
Excerpt: as §1, §2

IC50 [1] | IC50 [2] | SMILES
≤ 1000 nM | ≤ 1000 nM | Cn1c(=O)c(NCCC2CCC(F)(F)CC2)cc2cc(N3CC(=O)NS3(=O)=O)c(O)cc21 [Compound 201]
≤ 1000 nM | ≤ 1000 nM | CC(C)OCCNc1ccc2cc(O)c(N3CC(=O)NS3(=O)=O)cc2n1 [Compound 138]
≤ 1000 nM | ≤ 1000 nM | Cn1c(=O)c(NCCc2ccccc2)cc2cc(N3CC(=O)NS3(=O)=O)c(O)cc21 [Compound 123, 5-(7-hydroxy-1-methyl-2-oxo-3-(phenethylamino)-1,2-dihydroquinolin-6-yl)-1,2,5-thiadiazolidin-3-one 1,1-dioxide]
1000 to 10000 nM | ≤ 1000 nM | CC(C)CCN1Cc2cc(N3CC(=O)NS3(=O)=O)c(O)cc2N(C)C1=O [Compound 116]
1000 to 10000 nM | ≤ 1000 nM | Cn1c(=O)c(NCCOC2CCCC2)cc2cc(N3CC(=O)NS3(=O)=O)c(O)cc21 [Compound 140]
1000 to 10000 nM | ≤ 1000 nM | O=C1CN(c2cc3nc(C4CCOC4)ccc3cc2O)S(=O)(=O)N1 (centres unmarked) [Compound 147]
≤ 1000 nM | ≤ 1000 nM | Cn1c(=O)c(NCCCC#N)cc2cc(N3CC(=O)NS3(=O)=O)c(O)cc21 [Compound 148]
≤ 1000 nM | ≤ 1000 nM | CC(C)CCN1Cc2cc(N3CC(=O)NS3(=O)=O)c(O)cc2CC1=O [Compound 119, 5-(6-hydroxy-2-isopentyl-3-oxo-1,2,3,4-tetrahydroisoquinolin-7-yl)-1,2,5-thiadiazolidin-3-one 1,1-dioxide]
≤ 1000 nM | ≤ 1000 nM | CC(C)CCNc1ccc2cc(O)c(N3C(C)C(=O)NS3(=O)=O)cc2n1 (centres unmarked) [Compound 137, 5-(6-hydroxy-2-(isopentylamino)quinolin-7-yl)-4-methyl-1,2,5-thiadiazolidin-3-one 1,1-dioxide]
> 10000 nM | > 10000 nM | Cn1c(=O)c(C#N)cc2cc(N3CC(=O)NS3(=O)=O)c(O)cc21 [Compound 161]
≤ 1000 nM | ≤ 1000 nM | O=C1CN(c2cc3nc(NCCc4ccccc4)ccc3cc2O)S(=O)(=O)N1 [Compound 118]
≤ 1000 nM | ≤ 1000 nM | Cn1c(=O)c(NCC(C)(F)F)cc2cc(N3CC(=O)NS3(=O)=O)c(O)cc21 [Compound 173]
≤ 1000 nM | ≤ 1000 nM | O=C1CN(c2cc3nc(OCCc4ccccc4)ccc3cc2O)S(=O)(=O)N1 [Compound 167]
≤ 1000 nM | ≤ 1000 nM | CC(C)CCOc1ccc2cc(O)c(N3CC(=O)NS3(=O)=O)cc2n1 [Compound 182]
≤ 1000 nM | ≤ 1000 nM | CC(C)Oc1cc2c(F)c(N3CC(=O)NS3(=O)=O)c(O)cc2n(C)c1=O [Compound 156]
> 10000 nM | 1000 to 10000 nM | O=C1C=C(c2cc3cc(-c4cccnc4)cnc3cc2O)S(=O)(=O)N1 [Compound 115, 5-(7-hydroxy-3-(pyridin-3-yl)quinolin-6-yl)isothiazol-3(2H)-one 1,1-dioxide]
> 10000 nM | > 10000 nM | CC(C)CCN1Cc2cc(C3CC(=O)NS3(=O)=O)c(O)cc2N(C)C1=O (centres unmarked) [Compound 111, 5-(7-hydroxy-3-isopentyl-1-methyl-2-oxo-1,2,3,4-tetrahydroquinazolin-6-yl)isothiazolidin-3-one 1,1-dioxide]
≤ 1000 nM | ≤ 1000 nM | Cn1c(=O)c(NC2CCN(S(C)(=O)=O)C2)cc2cc(N3CC(=O)NS3(=O)=O)c(O)cc21 (centres unmarked) [Compound 191]
> 10000 nM | > 10000 nM | CC(C)CCn1ccc2cc(O)c(N3CC(=O)NS3(=O)=O)cc2c1=O [Compound 199]
≤ 1000 nM | ≤ 1000 nM | Cn1c(=O)c(NCCCCC#N)cc2cc(N3CC(=O)NS3(=O)=O)c(O)cc21 [Compound 193]
1000 to 10000 nM | 1000 to 10000 nM | CC(C)CCn1ccc2cc(O)c(N3CC(=O)NS3(=O)=O)c(F)c2c1=O [Compound 157]
≤ 1000 nM | ≤ 1000 nM | Cn1c(=O)c(NCCC2CCCC2)cc2c(F)c(N3CC(=O)NS3(=O)=O)c(O)cc21 [Compound 179]
≤ 1000 nM | ≤ 1000 nM | N#Cc1cccc(CCOc2ccc3cc(O)c(N4CC(=O)NS4(=O)=O)cc3n2)c1 [Compound 159]
> 10000 nM | > 10000 nM | CC(C)CCN1Cc2cc(C3CC(=O)NS3(=O)=O)c(O)cc2CC1=O (centres unmarked) [Compound 112]
≤ 1000 nM | ≤ 1000 nM | Cn1c(=O)c(NCc2ccccc2)cc2c(F)c(N3CC(=O)NS3(=O)=O)c(O)cc21 [Compound 180]
≤ 1000 nM | ≤ 1000 nM | O=C1CN(c2cc3nc(OCCc4ccc(F)cc4)ccc3cc2O)S(=O)(=O)N1 [Compound 189]
> 10000 nM | 1000 to 10000 nM | CC(C)CCNc1ccc2cc(O)c(C3CC(=O)NS3(=O)=O)cc2n1 (centres unmarked) [Compound 109]
≤ 1000 nM | ≤ 1000 nM | CC(C)CCNc1cc2cc(N3CC(=O)NS3(=O)=O)c(O)cc2n(C2CC2)c1=O [Compound 145]
1000 to 10000 nM | 1000 to 10000 nM | COC(=O)c1cc2cc(N3CC(=O)NS3(=O)=O)c(O)cc2s1 [Compound 103]
> 10000 nM | 1000 to 10000 nM | O=C1C=C(c2cc3cc(Cl)cnc3cc2O)S(=O)(=O)N1 [Compound 107]

SMILES | IC50 [1] | IC50 [2]
CN1CC=C(c2cnc3cc(O)c(C4=CC(=O)NS4(=O)=O)cc3c2)CC1 [Compound 114] | > 10000 nM | > 10000 nM

— patent publication US20240166641A1, “HETEROCYCLES AND USES THEREOF” (Kumquat Biosciences Inc., priority 2021, published 2024)
